Test results reported in US12054447B2, “PCNA inhibitors” (City of Hope, priority 2015, dated 2024).

Columns and labels:
Test in all cases: NCI-60 panel test
Format in all cases: cell-based
786-0 = conditions: Homo sapiens; 786-0, NCI-60 5-dose study
Description: (§1) FIG. 7. NCI-60 panel test. The effect of AOH1160 on growth of the NCI-60 panel, which consists of 60 cancer cell lines representing 9 major cancer types, was tested in a 5-dose study. Shown are the Log IC50 values determined for each cell line. […] This study was performed by the National Institute of Cancer.
(§2) As observed in FIG. 7, the effect of AOH1160 on growth of the NCI-60 panel, which consists of 60 cancer cell lines representing 9 major cancer types, was tested in a 5-dose study. Shown are the Log IC50 values determined for each cell line.

CCRF-CEM = conditions: Homo sapiens, NCI-60 5-dose study
Description: as §1, §2

COLO 205 = conditions: Homo sapiens
Description: as §1, §2

HCC-2998 = conditions: Homo sapiens; HCC-2998, NCI-60 5-dose study
Description: as §1, §2

HCT-116 = conditions: Homo sapiens; HCT-116, NCI-60 5-dose study
Description: as §1, §2

HOP-62 = conditions: Homo sapiens; HOP-62, NCI-60 5-dose study
Description: as §1, §2

HOP-92 = conditions: Homo sapiens; HOP-92, NCI-60 5-dose study
Description: as §1, §2

IGROV1 = conditions: Homo sapiens, IGROV-1; IGROV1, NCI-60 5-dose study
Description: as §1, §2

KM12 = conditions: Homo sapiens; KM12, NCI-60 5-dose study
Description: as §1, §2

M14 = conditions: Homo sapiens; M14, NCI-60 5-dose study
Description: as §1, §2

MALME-3M = conditions: Homo sapiens, NCI-60 5-dose study
Description: as §1, §2

MOLT-4 = conditions: Homo sapiens; MOLT-4, NCI-60 5-dose study
Description: as §1, §2

NCI-H322M = conditions: Homo sapiens, NCI-60 5-dose study
Description: as §1, §2

NCI-H460 = conditions: Homo sapiens; NCI-H460, NCI-60 5-dose study
Description: as §1, §2

NCI/ADR-RES = conditions: Homo sapiens, NCI-60 5-dose study
Description: as §1, §2

OVCAR-3 = conditions: Homo sapiens; OVCAR-3, NCI-60 5-dose study
Description: as §1, §2

PC-3 = conditions: Homo sapiens; PC-3, NCI-60 5-dose study
Description: as §1, §2

SF-268 = conditions: Homo sapiens
Description: as §1, §2

SF-539 = conditions: Homo sapiens; SF-539, NCI-60 5-dose study
Description: as §1, §2

SK-MEL-2 = conditions: Homo sapiens; SK-MEL-2, NCI-60 5-dose study
Description: as §1, §2

SK-MEL-5 = conditions: Homo sapiens; SK-MEL-5, NCI-60 5-dose study
Description: as §1, §2

SK-OV-3 = conditions: Homo sapiens; SK-OV-3, NCI-60 5-dose study
Description: as §1, §2

SN12C = conditions: Homo sapiens, NCI-60 5-dose study
Description: as §1, §2

SNB-19 = conditions: Homo sapiens; SNB-19, NCI-60 5-dose study
Description: as §1, §2

SNB-75 = conditions: Homo sapiens; SNB-75, NCI-60 5-dose study
Description: as §1, §2

SR = conditions: Homo sapiens, NCI-60 5-dose study
Description: as §1, §2

TK-10 = conditions: Homo sapiens; TK-10, NCI-60 5-dose study
Description: as §1, §2

U251 = conditions: Homo sapiens, U-251; U251, NCI-60 5-dose study
Description: as §1, §2

UACC-62 = conditions: Homo sapiens; UACC-62, NCI-60 5-dose study
Description: as §1, §2

UO-31 = conditions: Homo sapiens; UO-31, NCI-60 5-dose study
Description: as §1, §2

Structure (SMILES) | GI50 (786-0) | GI50 (CCRF-CEM) | GI50 (COLO 205) | GI50 (HCC-2998) | GI50 (HCT-116) | GI50 (HOP-62) | GI50 (HOP-92) | GI50 (IGROV1) | GI50 (KM12) | GI50 (M14) | GI50 (MOLT-4) | GI50 (NCI-H322M) | GI50 (NCI-H460) | GI50 (NCI/ADR-RES) | GI50 (OVCAR-3) | GI50 (PC-3) | GI50 (SF-268) | GI50 (SF-539) | GI50 (SK-MEL-2) | GI50 (SK-MEL-5) | also measured
COc1cccc(Oc2ccccc2NC(=O)CNC(=O)c2cccc3ccccc23)c1 [PCNA7/ AOH1996] | 182 nM | 363 nM | 282 nM | 1260 nM | 95.5 nM | 302 nM | 204 nM | 1050 nM | 191 nM | 158 nM | 661 nM | 1290 nM | 295 nM | 240 nM | 100 nM | 282 nM | 550 nM | 224 nM | 182 nM | 219 nM | GI50 (MALME-3M): 17000 nM; GI50 (SK-OV-3): 490 nM; GI50 (SN12C): 1450 nM; GI50 (SNB-19): 617 nM; GI50 (SNB-75): 129 nM; GI50 (SR): 115 nM; GI50 (TK-10): 1580 nM; GI50 (U251): 240 nM; GI50 (UACC-62): 209 nM; GI50 (UO-31): 1820 nM
O=C(CNC(=O)c1cccc2ccccc12)Nc1ccccc1Oc1cccc(O)c1 [PCNA2] | 10000 nM | 4170 nM | 14800 nM | 25100 nM | 1380 nM | 8130 nM | 25100 nM | 10000 nM | 2190 nM | 1550 nM | 4900 nM | 10700 nM | 5750 nM | 7940 nM | 1510 nM | 7080 nM | 20900 nM | 4070 nM | 25100 nM | 25100 nM | GI50 (MALME-3M): 5890 nM; GI50 (SK-OV-3): 12900 nM; GI50 (SN12C): 25100 nM; GI50 (SNB-19): 8710 nM; GI50 (SNB-75): 3310 nM; GI50 (SR): 1050 nM; GI50 (TK-10): 25100 nM; GI50 (U251): 8320 nM; GI50 (UACC-62): 1620 nM; GI50 (UO-31): 16600 nM
O=C(CNC(=O)c1cccc2ccccc12)Nc1ccccc1Oc1ccccc1 [AOH1160] | 447 nM | 347 nM | 309 nM | 708 nM | 324 nM | 355 nM | 2240 nM | 912 nM | 288 nM | 275 nM | 347 nM | 631 nM | 331 nM | 240 nM | 191 nM | 302 nM | 437 nM | 240 nM | 269 nM | 263 nM | GI50 (MALME-3M): 10000 nM; GI50 (SK-OV-3): 398 nM; GI50 (SN12C): 589 nM; GI50 (SNB-19): 457 nM; GI50 (SNB-75): 229 nM; GI50 (SR): 83.2 nM; GI50 (TK-10): 617 nM; GI50 (U251): 331 nM; GI50 (UACC-62): 178 nM; GI50 (UO-31): 646 nM
COc1ccc(Oc2ccccc2NC(=O)CNC(=O)c2cccc3ccccc23)cc1 [PCNA6] | 1150 nM | 912 nM | 646 nM | 1410 nM | 617 nM | 724 nM | 25100 nM | 1580 nM | 575 nM | 550 nM | 955 nM | 1230 nM | 851 nM | 427 nM | 389 nM | 1050 nM | 2040 nM | 575 nM | 2290 nM | 25100 nM | GI50 (MALME-3M): 25100 nM; GI50 (SK-OV-3): 1020 nM; GI50 (SN12C): 2290 nM; GI50 (SNB-19): 1230 nM; GI50 (SR): 166 nM; GI50 (TK-10): 2140 nM; GI50 (U251): 1050 nM; GI50 (UACC-62): 562 nM; GI50 (UO-31): 1480 nM
O=C(CNC(=O)c1cccc2ccccc12)Nc1ccccc1Oc1ccc(O)cc1 [PCNA1] | 1050 nM | 933 nM | 794 nM | 8910 nM | 977 nM | 1350 nM | 25100 nM | 2340 nM | 912 nM | 692 nM | 1200 nM | 1150 nM | 977 nM | 1200 nM | 741 nM | 1320 nM | 3310 nM | 692 nM | 25100 nM | 25100 nM | GI50 (SK-OV-3): 1580 nM; GI50 (SN12C): 2190 nM; GI50 (SNB-19): 1410 nM; GI50 (SNB-75): 589 nM; GI50 (SR): 457 nM; GI50 (TK-10): 17000 nM; GI50 (U251): 1410 nM; GI50 (UACC-62): 1170 nM; GI50 (UO-31): 1780 nM
